ChEMBL document CHEMBL4706609, “Development of triazolothiadiazine derivatives as highly potent tubulin polymerization inhibitors: Structure-activity relationship, in vitro and in vivo study” (Eur J Med Chem, 2020)
The source made the active and inactive calls. The rule behind the calls is not given here.

Assays:
A549 [1] = experiment: Induction of apoptosis in human A549 cells assessed as necrotic cells at 2.5 nM measured after 24 hrs by Annexin V-FITC/propidium iodide staining based flow cytometry (reference value: 0.508%); format: functional
HeLa = experiment: Antiproliferative activity against human HeLa cells assessed as reduction in cell growth after 48 hrs by MTT assay; format: functional, cell-based
MCF7 = experiment: Antiproliferative activity against human MCF7 cells assessed as reduction in cell growth after 48 hrs by MTT assay; format: functional, cell-based; conditions: MCF7, 48 h
A2780 = experiment: Antiproliferative activity against paclitaxel-resistant human A2780 cells assessed as reduction in cell growth after 48 hrs by MTT assay; format: functional, cell-based; conditions: A2780, 48 h
[2] = Toxicity in BALB/c mouse xenografted with human A549 cells assessed as change in body weight at 15 mg/kg, ip measured after 30 days; format: organism-based; conditions: in vivo, 720 h, time 30 day
[3] = Antitumor activity against human A549 cells xenografted in BALB/c mouse assessed as tumor volume at 60 mg/kg, ip measured for every 2 days upto 30 days (reference value: 652.13 mm^3); format: functional; conditions: time 2 day
A549 [4] = experiment: Induction of apoptosis in human A549 cells assessed as viable cells at 5 nM measured after 24 hrs by Annexin V-FITC/propidium iodide staining based flow cytometry (reference value: 95.3%); format: functional; conditions: read-out: Activity
Tubulin = experiment: Inhibition of tubulin polymerization in human A549 cells assessed as disruption of microtubule organization at 50 nM incubated for 6 hrs by immunofluorescent staining; format: cell-based
A549 [5] = experiment: Antiproliferative activity against cisplatin resistant human A549 cells assessed as reduction in cell growth after 48 hrs by MTT assay; format: functional, cell-based; conditions: A549, 48 h
A549 [6] = experiment: Induction of apoptosis in human A549 cells assessed as increase in cleaved caspase-3 level incubated for 24 hrs by Western blot analysis; format: functional, cell-based; conditions: dose nM <=10, time 24.0 hrs
[7] = Antitumor activity against human A549 cells xenografted in BALB/c mouse assessed as tumor growth inhibition at 8 mg/kg, ip measured every 2 days for every 2 days upto 30 days relative to control; format: functional; design: scale not given: the % may be the effect or the level left; conditions: time 2 day
A549 [8] = experiment: Induction of apoptosis in human A549 cells assessed as increase in cleaved PARP level incubated for 24 hrs by Western blot analysis; format: functional, cell-based; conditions: dose nM <=10, time 24.0 hrs
A549 [9] = experiment: Induction of cell cycle arrest in human A549 cells assessed as increase in p-cdc2 expression upto 10 nM incubated for 24 hrs by Western blot analysis; format: functional, cell-based; conditions: dose nM <=10, time 24.0 hrs
A549 [10] = experiment: Induction of cell cycle arrest in human A549 cells assessed as accumulation at G2/M phase upto 20 nM incubated for 24 hrs by flow cytometry; format: functional, cell-based; conditions: dose nM <=20, time 24.0 hrs
A549 [11] = experiment: Induction of apoptosis in human A549 cells assessed as early apoptotic cells at 10 nM measured after 24 hrs by Annexin V-FITC/propidium iodide staining based flow cytometry (reference value: 2.72%); format: functional
[12] = Antitumor activity against human A549 cells xenografted in BALB/c mouse assessed as tumor growth inhibition at 60 mg/kg, ip measured every 2 days upto 30 days relative to control; format: functional; design: scale not given: the % may be the effect or the level left; conditions: time 30 day
A549 [13] = experiment: Induction of apoptosis in human A549 cells assessed as viable cells at 10 nM measured after 24 hrs by Annexin V-FITC/propidium iodide staining based flow cytometry (reference value: 95.3%); format: functional; conditions: read-out: Activity
A549 [14] = experiment: Induction of apoptosis in human A549 cells assessed as viable cells at 2.5 nM measured after 24 hrs by Annexin V-FITC/propidium iodide staining based flow cytometry (reference value: 95.3%); format: functional; conditions: read-out: Activity
[15] = Antitumor activity against human A549 cells xenografted in BALB/c mouse assessed as tumor weight at 15 mg/kg, ip measured every 2 days upto 30 days (reference value: 0.563 g); format: functional; conditions: time 2 day
A549 [16] = experiment: Antiproliferative activity against human A549 cells assessed as reduction in cell growth after 48 hrs by MTT assay; format: functional, cell-based; conditions: A549, 48 h
A549 [17] = experiment: Induction of apoptosis in human A549 cells assessed as late apoptotic cells at 5 nM measured after 24 hrs by Annexin V-FITC/propidium iodide staining based flow cytometry (reference value: 1.51%); format: functional
A549 [18] = experiment: Induction of apoptosis in human A549 cells assessed as late apoptotic cells at 10 nM measured after 24 hrs by Annexin V-FITC/propidium iodide staining based flow cytometry (reference value: 1.51%); format: functional
A549 [19] = experiment: Induction of apoptosis in human A549 cells assessed as late apoptotic cells at 2.5 nM measured after 24 hrs by Annexin V-FITC/propidium iodide staining based flow cytometry (reference value: 1.51%); format: functional
[20] = Antitumor activity against human A549 cells xenografted in BALB/c mouse assessed as tumor volume at 15 mg/kg, ip measured for every 2 days upto 30 days (reference value: 652.13 mm^3); format: functional; conditions: time 2 day
[21] = Antitumor activity against human A549 cells xenografted in BALB/c mouse assessed as tumor weight at 8 mg/kg, ip measured every 2 days for every 2 days upto 30 days (reference value: 0.563 g); format: functional; conditions: time 2 day
A549 [22] = experiment: Induction of apoptosis in human A549 cells assessed as necrotic cells at 10 nM measured after 24 hrs by Annexin V-FITC/propidium iodide staining based flow cytometry (reference value: 0.508%); format: functional
[23] = Antitumor activity against human A549 cells xenografted in BALB/c mouse assessed as tumor weight at 60 mg/kg, ip measured every 2 days upto 30 days (reference value: 0.563 g); format: functional; conditions: time 2 day
A549 [24] = experiment: Induction of apoptosis in human A549 cells assessed as apoptotic cells upto 10 nM measured after 24 hrs by Annexin V-FITC/propidium iodide staining based flow cytometry; format: functional, cell-based; conditions: dose nM <=10, time 24.0 hrs
A549 [25] = experiment: Induction of cell cycle arrest in human A549 cells assessed as inhibition of p-cdc2/cyclin B1 activity incubated for 24 hrs by Western blot analysis; format: functional, cell-based
HT-29 = experiment: Antiproliferative activity against human HT-29 cells assessed as reduction in cell growth after 48 hrs by MTT assay; format: functional, cell-based; conditions: HT-29, 48 h
A549 [26] = experiment: Induction of apoptosis in human A549 cells assessed as necrotic cells at 5 nM measured after 24 hrs by Annexin V-FITC/propidium iodide staining based flow cytometry (reference value: 0.508%); format: functional
A549 [27] = experiment: Induction of cell cycle arrest in human A549 cells assessed as accumulation at G2/M phase at 20 nM incubated for 24 hrs by flow cytometry relative to control; format: functional
[28] = Toxicity in BALB/c mouse xenografted with human A549 cells assessed as change in body weight at 60 mg/kg, ip measured after 30 days; format: organism-based; conditions: in vivo, 720 h, time 30 day
A549 [29] = experiment: Induction of apoptosis in human A549 cells assessed as early apoptotic cells at 5 nM measured after 24 hrs by Annexin V-FITC/propidium iodide staining based flow cytometry (reference value: 2.72%); format: functional
A549 [30] = experiment: Induction of apoptosis in human A549 cells assessed as early apoptotic cells at 2.5 nM measured after 24 hrs by Annexin V-FITC/propidium iodide staining based flow cytometry (reference value: 2.72%); format: functional
A549 [31] = experiment: Induction of apoptosis in human A549 cells assessed as decrease in Bcl2 level upto 10 nM incubated for 24 hrs by Western blot analysis; format: functional, cell-based; conditions: dose nM <=10, time 24.0 hrs
[32] = (§1) Inhibition of porcine brain tubulin polymerization measured for 20 mins by spectrometric assay; format: tissue-based, Sus scrofa
Sus scrofa = species: Sus scrofa; experiment: as §1; format: tissue-based
[33] = Antitumor activity against human A549 cells xenografted in BALB/c mouse assessed as tumor growth inhibition at 15 mg/kg, ip measured every 2 days upto 30 days relative to control; format: functional; design: scale not given: the % may be the effect or the level left; conditions: time 30 day
HEK293 = experiment: Cytotoxicity against HEK293 cells assessed as reduction in cell growth after 48 hrs by MTT assay; format: cell-based; conditions: Homo sapiens, HEK293, 48 h
[34] = Antitumor activity against human A549 cells xenografted in BALB/c mouse assessed as tumor volume at 8 mg/kg, ip measured for every 2 days upto 30 days (reference value: 652.13 mm^3); format: functional; conditions: time 2 day

COc1cc(-c2nnc3n2N=C(c2ccc(C)cc2)CS3)cc(OC)c1OC
Activity (A549 [1]): 0.529%
IC50 (HeLa): 0.004 µM
IC50 (MCF7): 0.098 µM
IC50 (A2780): 18.8 µM
Activity [2]: Non-Toxic
Activity [3]: 354.12 mm3
viability at 0.005 µM (A549 [4]): 82.8%
IC50 (Tubulin): Active
IC50 (A549 [5]): 3.95 µM
Activity (A549 [6]): Dose-dependent effect
Activity [7]: 58.4%
Activity (A549 [8]): Dose-dependent effect
Activity (A549 [9]): Dose-dependent effect
Activity (A549 [10]): Dose-dependent effect
Activity (A549 [11]): 8.66%
Activity [12]: 44.4%
viability at 0.01 µM (A549 [13]): 77.6%
viability at 0.0025 µM (A549 [14]): 88.8%
Activity [15]: 0.397 g
IC50 (A549 [16]): 0.05 µM
Activity (A549 [17]): 9.97%
Activity (A549 [18]): 13.1%
Activity (A549 [19]): 5.36%
Activity [20]: 449.88 mm3
Activity [21]: 0.234 g
Activity (A549 [22]): 0.666%
Activity [23]: 0.313 g
Activity (A549 [24]): Dose-dependent effect
Activity (A549 [25]): Active
IC50 (HT-29): 0.023 µM
Activity (A549 [26]): 0.694%
Activity (A549 [27]): 91.56%
Activity [28]: Non-Toxic
Activity (A549 [29]): 6.58%
Activity (A549 [30]): 5.36%
Activity (A549 [31]): Active
IC50 [32]: 1.69 µM
inhibition (Sus scrofa): Dose-dependent effect
Activity [33]: 29.5%
IC50 (HEK293): > 100 µM
Activity [34]: 264 mm3
